Experimental data published in patent US12319643B2, “Ionizable compounds and compositions and uses thereof” (Nitto Denko Corporation, priority 2015, dated 2025).

Experiments:
GFP = assay: EC50 of nanoparticle formulations, GFP siRNA; format: cell-based; conditions: nanoparticles Ionizable compound/DOPE/Cholesterol/DMPE-PEG 50/28/21/1 mol %
Experimental: (§1) Example 39: Formulations were Prepared for Encapsulating a Small Interfering Nucleic Acid Agents (siRNA)
(§2) Lipid nanoparticle formulations were prepared with the following compositions: […]
(§3) (Ionizable compound/DOPE/Cholesterol/DMPE-PEG) mol % • 50/28/21/1.
The formulations were capable of encapsulating the siRNA, and retaining stability in human serum.

[1] = Particle size Z (ave) of siRNA lipid nanoparticle formulations; format: physicochemical; conditions: Table 8: nanoparticles Ionizable compound/DOPE/DOPC/Cholesterol/DMPE-PEG 50/28/0/21/1, 50/28/0/20/2 or 26/21/21/31/1 mol %
Experimental: (§4) Example 38: Formulations were Prepared for Encapsulating a Small Interfering Nucleic Acid Agents (siRNA)
as §2

[2] = Encapsulation efficiency for siRNA of lipid (nanoparticle) formulations; format: physicochemical; conditions: Table 8: nanoparticles Ionizable compound/DOPE/DOPC/Cholesterol/DMPE-PEG 50/28/0/21/1, 50/28/0/20/2 or 26/21/21/31/1 mol %
Experimental: as §4, §2

[3] = pKa (Table 9, lipid formulations for siRNA); format: physicochemical; conditions: only or first value of the cell
[4] = Serum stability of nanoparticle formulations, t(½) in human serum at 37 C; format: in vitro ADME; conditions: Table 10, nanoparticles Ionizable compound/DOPE/Cholesterol/DMPE-PEG 50/28/21/1 mol %
Experimental: as §1, §2, §3
The formulations were capable of encapsulating the siRNA, and retaining stability in human serum. […]

Structure (SMILES) | EC50 (GFP) [nM] | Z (ave) nm [1] [nm] | EE* (%) Encapsulation efficiency for siRNA [2] [%] | pKa [3] | t(½) (hr) human serum 37 C. [4] [h]
CCCCCCCCCCCCCC(=O)OCCN(CCOC(=O)CCCCCCCCCCCCC)C(=O)CN1CC(CO)C1 [Compound A9, ((2-(3-(hydroxymethyl)azetidin-1-yl)acetyl)azanediyl)bis(ethane-2,1-diyl) ditetradecanoate] | 31 | 97 | 95 | 7.4 | 
CCCCC/C=C\C/C=C\CCCCCCCC(=O)OCCN(CCCCN(C)C)C(=O)CCCCCCC/C=C\C/C=C\CCCCC [Compound F6, 2-((9Z,12Z)—N-(4-(dimethylamino)butyl)octadeca-9,12-dienamido)ethyl (9Z,12Z)-octadeca-9,12-dienoate] |  |  |  | 9.3 | 
CCCCC/C=C\C/C=C\CCCCCCCCOC(=O)CC(CC(=O)OCCCCCCCC/C=C\C/C=C\CCCCC)NC(=O)SCCN(C)C [Compound DD, di((9Z,12Z)-octadeca-9,12-dien-1-yl) 3-((((2-(dimethylamino)ethyl)thio)carbonyl)amino)pentanedioate] |  | 137 | 92 | 5.1 | >50
CCCCC/C=C\C/C=C\CCCCCCCCOC(=O)[C@@H]1C[C@@H](NC(=O)CCN(C)C)CN1C(=O)CCCCCCC/C=C\C/C=C\CCCCC [Compound E37, (9Z,12Z)-octadeca-9,12-dien-1-yl (2S,4R)-4-(3-(dimethylamino)propanamido)-1-((9Z,12Z)-octadeca-9,12-dienoyl)pyrrolidine-2-carboxylate] |  |  |  | 9.2 | 
CCCCC/C=C\C/C=C\CCCCCCCC(=O)OCCN(CCOC(=O)CCCCCCC/C=C\C/C=C\CCCCC)C(=O)CN1C[C@@H](O)[C@@H](O)C1 [Compound A6, ((2-((3S,4R)-3,4-dihydroxypyrrolidin-1-yl)acetyl)azanediyl)bis(ethane-2,1-diyl) (9Z,9′Z,12Z,12′Z)-bis(octadeca-9,12-dienoate)] | 11 | 121 | 96 | 6.3 | >50
CCCCC/C=C\C/C=C\CCCCCCCC(=O)OCCN(CCCN(C)C)C(=O)CCCCCCC/C=C\C/C=C\CCCCC [Compound F5, 2-((9Z,12Z)—N-(3-(dimethylamino)propyl)octadeca-9,12-dienamido)ethyl (9Z,12Z)-octadeca-9,12-dienoate] | 33 |  |  | 9.4 | 
CCCCC/C=C\C/C=C\CCCCCCCCOC(=O)[C@H](CNC(=O)CN(C)C)NC(=O)CCCCCCC/C=C\C/C=C\CCCCC [Compound C25, (9Z,12Z)-octadeca-9,12-dien-1-yl (S)-3-(2-(dimethylamino)acetamido)-2-((9Z,12Z)-octadeca-9,12-dienamido)propanoate] |  |  |  |  | >50
CCCCC/C=C\C/C=C\CCCCCCCC(=O)OCCN(CCOC(=O)CCCCCCC/C=C\C/C=C\CCCCC)C(=O)OCC[N+](C)(C)C [Compound A8, 2-((bis(2-(((9Z,12Z)-octadeca-9,12-dienoyl)oxy)ethyl)carbamoyl)oxy)-N,N,N-trimethylethan-1-aminium] |  |  |  |  | >50
CCCC/C=C\C/C=C\CCCCCCCCOC(=O)CC(CC(=O)OCCCCCCCC/C=C\C/C=C\CCCCC)NC(=O)CN(C)C (centres unmarked) [Compound C3, 1-((9Z,12Z)-heptadeca-9,12-dien-1-yl) 5-((9Z,12Z)-octadeca-9,12-dien-1-yl) 3-(2-(dimethylamino)acetamido)pentanedioate] |  |  |  | 6.9 | 
CCCCCCCCCCCCCC(=O)OCCN(CCOC(=O)CCCCCCCCCCCCC)C(=O)CCCC(=O)O [Compound B8] |  |  |  | 4.3 | >50
CCCCC/C=C\C/C=C\CCCCCCCC(=O)OCCN(CCOC(=O)CCCCCCC/C=C\C/C=C\CCCCC)C(=O)CN1C[C@@H](O)[C@H](O)C1 [Compound A5, ((2-((3R,4R)-3,4-dihydroxypyrrolidin-1-yl)acetyl)azanediyl)bis(ethane-2,1-diyl) (9Z,9′Z,12Z,12′Z)-bis(octadeca-9,12-dienoate)] | 6.9 |  |  | 6.1 | >50
CCCCC/C=C\C/C=C\CCCCCCCC(=O)OCCN(CCOC(=O)CCCCCCC/C=C\C/C=C\CCCCC)C(=O)CN1CCN(CCO)CC1 [Compound AB, ((2-(4-(2-hydroxyethyl)piperazin-1-yl)acetyl)azanediyl)bis(ethane-2,1-diyl) (9Z,9′Z,12Z,12′Z)-bis(octadeca-9,12-dienoate)] | 7.4 |  |  | 6.9 | >50
CCCCC/C=C\C/C=C\CCCCCCCC(=O)OCCN(CCOC(=O)CCCCCCC/C=C\C/C=C\CCCCC)C(=O)OCCN(C)C [Compound A7, (((2-(dimethylamino)ethoxy)carbonyl)azanediyl)bis(ethane-2,1-diyl) (9Z,9′Z,12Z,12′Z)-bis(octadeca-9,12-dienoate)] | 35 |  |  | 7.6 | >50
CCCCC/C=C\C/C=C\CCCCCCCC(=O)OCCN(CCOC(=O)CCCCCCC/C=C\C/C=C\CCCCC)C(=O)CN1CCN(CCCO)CC1 [Compound AA] | 22 | 120 | 90 | 7.4 | 
CCCCC/C=C\C/C=C\CCCCCCCCOC(=O)[C@H](CNC(=O)C[N+](C)(C)C)NC(=O)CCCCCCC/C=C\C/C=C\CCCCC [Compound C24, N,N,N-trimethyl-2-(((S)-3-(((9Z,12Z)-octadeca-9,12-dien-1-yl)oxy)-2-((9Z,12Z)-octadeca-9,12-dienamido)-3-oxopropyl)amino)-2-oxoethan-1l-aminium] | 92 | 127 | 98 |  | >50
CCCCC/C=C\C/C=C\CCCCCCCCOC(=O)CC(CC(=O)OCCCCCCCC/C=C\C/C=C\CCCCC)NC(=O)CN1CCN(CCO)CC1 [Compound CA, di((9Z,12Z)-octadeca-9,12-dien-1-yl) 3-(2-(4-(2-hydroxyethyl)piperazin-1-yl)acetamido)pentanedioate] | < 50 |  |  |  | 
CCCCCCCCCCCCCC(=O)OCCN(CCOC(=O)CCCCCCCCCCCCC)C(=O)CN1C[C@H](O)[C@@H](O)C1 [Compound A4, ((2-((3S,4S)-3,4-dihydroxypyrrolidin-1-yl)acetyl)azanediyl)bis(ethane-2,1-diyl) ditetradecanoate] |  |  |  | 5.8 | 
CCCCC/C=C\C/C=C\CCCCCCCCOC(=O)[C@@H]1C[C@@H](NC(=O)CCC[N+](C)(C)C)CN1C(=O)CCCCCCC/C=C\C/C=C\CCCCC [Compound E39, N,N,N-trimethyl-4-(((3R,5S)-5-((((9Z,12Z)-octadeca-9,12-dien-1-yl)oxy)carbonyl)-1-((9Z,12Z)-octadeca-9,12-dienoyl)pyrrolidin-3-yl)amino)-4-oxobutan-1-aminium] |  |  |  |  | >50
CCCCC/C=C\C/C=C\CCCCCCCCOC(=O)CC(CC(=O)OCCCCCCCC/C=C\C/C=C\CCCCC)NC(=O)OCCN(C)C [Compound E4, di((9Z,12Z)-octadeca-9,12-dien-1-yl) 3-(((2-(dimethylamino)ethoxy)carbonyl)amino)pentanedioate] | 2.7 | 131 | 94 |  | >50
CCCCC/C=C\C/C=C\CCCCCCCCOC(=O)[C@@H]1C[C@@H](NC(=O)CCCN(C)C)CN1C(=O)CCCCCCC/C=C\C/C=C\CCCCC [Compound E38, (9Z,12Z)-octadeca-9,12-dien-1-yl (2S,4R)-4-(4-(dimethylamino)butanamido)-1-((9Z,12Z)-octadeca-9,12-dienoyl)pyrrolidine-2-carboxylate] |  |  |  |  | >50
CCCC/C=C\C/C=C\CCCCCCCCOC(=O)CC(CC(=O)OCCCCCCCC/C=C\C/C=C\CCCCC)NC(=O)C[N+](C)(C)C (centres unmarked) [Compound C2, 2-((1-(((9Z,12Z)-heptadeca-9,12-dien-1-yl)oxy)-5-(((9Z,12Z)-octadeca-9,12-dien-1-yl)oxy)-1,5-dioxopentan-3-yl)amino)-N,N,N-trimethyl-2-oxoethan-1-aminium] | 33 | 111 | 95 |  | 
